Reference: patent publication US20260034135A1, “USE OF N6-BENZYLAMINOPURINE AS AN APPETITE SUPPRESSANT” (THE GOVERNING COUNCIL OF THE UNIVERSITY OF TORONTO, priority 2022, published 2026)

Tests used:
[1] = Peripheral fat mass by Bruker scan; type: in vivo, CD-1 mice; details: male CD-1, HFD, BAP emulsion 11 days, Bruker scan before and after
Excerpt: Male and female CD-1 mice were received at age 6-7 weeks and were acclimated on a chow diet for one week prior to experimentation. After acclimation to the facility, mice were switched to a 60% HFD. The male and female mice received HFD for 4 (male) and 5 or 16 (female) weeks prior to BAP exposure. The mice were then acclimated to the emulsion feeding protocol for 4 days prior to the start of BAP exposure using the method described in Kuster et al. (12). Two days prior to the start of the exposure period, a cohort of male mice underwent acute general anesthetic with isoflurane for baseline Bruker scanning to quantify peripheral fat mass. The mice were then weight-matched and randomly assigned to either the control or BAP group. During the exposure period, mice were restrained via scruffing (held at back of neck) and fed 200 μL of an emulsion containing 0.5% carboxymethyl cellulose and 50% honey with or without BAP at 2 hr prior to lights off at the facility daily.
The BAP concentrations were calibrated weekly to achieve a dosage of 300 mg/kg/day. All mice were kept on the 60% HFD throughout the exposure period. […] Hypothalamic collected from the mice were then used to isolate RNA and quantify gene expression using quantitative reverse transcription polymerase chain reaction (qRT-PCR).

mHypoE-41 cell line = assay: Gene expression by qRT-PCR in mHypoE-41 hypothalamic cell line; type: cell-based, mouse; details: 16 hr
Description: (§1) Hypothalamic neurons from embryonic and adult mice were previously immortalized to generate the clonal cell lines mHypoE-46, mHypoE-44, mHypoE-41, mHypoE-38, mHypoA-59, a FAC-sorted POMC/GFP mouse-derived cell line, mHypoA-POMC/GFP-2, and a mixed culture mHypoA-Bmal1-WT/F cell line (6, 13, 14). The mHypoE-46, mHypoE-44, and mHypoA-Bmal1-WT/F lines were cultured in DMEM containing 1000 mg/L glucose supplemented with 5% FBS and 1% pen/strep. The mHypoE-41, mHypoE-38, and mHypoA-59 cell lines were cultured in DMEM containing 4500 mg/L glucose supplemented with 2% FBS and 1% pen/strep. The mHypoA-POMC/GFP-2 line was cultured in DMEM containing 1000 mg/L glucose supplemented with 2% FBS and 1% pen/strep. All cells were maintained in 5% CO2 at 37° C. BAP was initially dissolved in DMSO solvent (vehicle control) to achieve 1000x the intended dose. The BAP solution was then diluted 1:1000 with the growth media used for the cell line. For co-treatment experiments, the vehicle control for ATP, UDP, and PKI was water, and for the H89 PKA inhibitor was DMSO. Neuropeptide gene expression levels were determined by qRT-PCR.
(§2) For cell culture experiments, total RNA was isolated using PureLink RNA isolation kit (Thermofisher Scientific, Burlington, ON, Canada) according to the manufacturer's instruction with on column DNase step (PureLink DNAse kit) or DNase I treatment to remove genomic DNA. For mouse experiments, total RNA was isolated using mirVana PARIS RNA and native protein isolation kit (Thermofisher Scientific). RNA quality and quantity were measured using Nanodrop 2000 and 500-1000 ng of complimentary DNA (cDNA) was synthesized with High Capacity cDNA Reverse Transcription kit (Applied biosystems, Thermofisher Scientific). Quantitative reverse transcription polymerase chain reaction (RT-qPCR) was performed with 12.5 ng of cDNA amplified with Platinum SYBR green qPCR SuperMix-UDG with ROX on an Applied Biosystems Prism 7900HT or PowerTrack Green Master Mix on an Applied Biosystems QuantStudio 5 and gene specific primers as per manufacturer's instructions (Table 1). Data was analyzed using […] and normalized to reference gene, either 60S ribosomal protein L7 (Rpl7) or Histone 3a (His).

mHypoA-59 cell line = assay: Gene expression by qRT-PCR in mHypoA-59 hypothalamic cell line; type: cell-based, mouse; details: 100 μM BAP, 16 hr
Description: as §1, §2

[2] = tested on: mHypoA-POMC/GFP-2 cell line; assay: Gene expression by qRT-PCR in mHypoA-POMC/GFP-2 hypothalamic cell line; type: cell-based, mouse; details: 100 μM BAP, 16 hr
Description: as §1, with “All cells were maintained in 5% CO2 at 37° C. BAP was initially dissolved in DMSO solvent (vehicle control) to achieve 1000x the intended dose. The BAP solution was then diluted 1:1000 with the growth media used for the cell line. For co-treatment experiments, the vehicle control for ATP, UDP, and PKI was water, and for the H89 PKA inhibitor was DMSO.” left out
For cell culture experiments, total RNA was isolated using PureLink RNA isolation kit (Thermofisher Scientific, Burlington, ON, Canada) according to the manufacturer's instruction with on column DNase step (PureLink DNAse kit) or DNase I treatment to remove genomic DNA. […] RNA quality and quantity were measured using Nanodrop 2000 and 500-1000 ng of complimentary DNA (cDNA) was synthesized with High Capacity cDNA Reverse Transcription kit (Applied biosystems, Thermofisher Scientific). […] Data was analyzed using […] and normalized to reference gene, either 60S ribosomal protein L7 (Rpl7) or Histone 3a (His).

[3] = rats fed BAP for 13 weeks, EPA study, no data shown; cited from earlier work
P2 receptors = details: rats, via P2 receptors, modifying intracellular calcium levels and cGMP; cited from earlier work
B16 melanoma cells = details: protein kinase A-dependent manner; cited from earlier work

c1ccc(CNc2ncnc3nc[nH]c23)cc1 [BAP, N6-benzylaminopurine]
net peripheral fat [1]: do not observe any significant changes | peripheral fat mass percentage [1]: do not observe any significant changes | Npy mRNA under co-treatment with ATP (mHypoE-41 cell line; 100 μM BAP + 100 μM ATP): unable to further induce Npy | Agrp mRNA expression (mHypoE-41 cell line; 100 μM BAP): increased | Npy mRNA expression (mHypoE-41 cell line; 100 μM BAP): increased | BAP dose with strongest Npy increase (mHypoE-41 cell line; dose curve, attenuated at 500 μM): 250 µM | Npy expression, dose curve (mHypoE-41 cell line; increasing concentrations of BAP): increases the expression of Npy | Npy mRNA expression (mHypoA-59 cell line): no effect | feeding neuropeptide expression (Npy, Agrp) in response to BAP (mHypoA-59 cell line): no changes in feeding neuropeptide expression | Pomc expression [2]: significantly induced | food intake [3]: reduced | weight gain [3]: reduced | strength of atrial muscle contractions (P2 receptors): increase the strength of atrial muscle contractions | melanogenesis (B16 melanoma cells): induce melanogenesis
